Measured values as given in US20070032468A1, “Novel thioxanthine derivatives for use as inhibitors of mpo” (AstraZeneca AB, priority 2003, published 2007).

Target: T1, human MPO (Homo sapiens, UniProt P05164)
T1 sequence (P05164 49-745): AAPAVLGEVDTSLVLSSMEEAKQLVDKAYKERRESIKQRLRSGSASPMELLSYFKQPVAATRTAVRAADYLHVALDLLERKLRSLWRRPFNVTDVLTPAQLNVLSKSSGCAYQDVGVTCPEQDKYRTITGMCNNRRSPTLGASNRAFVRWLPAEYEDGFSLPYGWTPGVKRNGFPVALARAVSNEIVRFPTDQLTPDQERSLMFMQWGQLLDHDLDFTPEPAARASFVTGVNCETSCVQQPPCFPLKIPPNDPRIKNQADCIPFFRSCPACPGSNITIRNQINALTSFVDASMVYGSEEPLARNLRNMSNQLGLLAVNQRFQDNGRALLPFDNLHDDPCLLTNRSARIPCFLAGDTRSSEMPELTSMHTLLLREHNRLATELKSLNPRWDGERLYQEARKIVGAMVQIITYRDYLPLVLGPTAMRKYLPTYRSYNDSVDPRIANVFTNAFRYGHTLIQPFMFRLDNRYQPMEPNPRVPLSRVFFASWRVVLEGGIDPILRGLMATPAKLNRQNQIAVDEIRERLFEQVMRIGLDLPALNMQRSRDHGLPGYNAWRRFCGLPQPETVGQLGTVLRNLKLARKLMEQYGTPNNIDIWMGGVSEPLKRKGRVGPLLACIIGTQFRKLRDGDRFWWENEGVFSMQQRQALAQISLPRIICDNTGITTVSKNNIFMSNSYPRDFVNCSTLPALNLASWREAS
Experiment: MPO inhibitory activity screen (TMB oxidation, absorbance)
Type: biochemical
Conditions: human MPO 2.5 nM, H2O2 100 μM, buffer pH 6.5, absorbance at about 650 nM
Protocol: Methods for the determination of MPO inhibitory activity are disclosed in co-pending patent application WO 02/090575. The pharmacological activity of compounds according to the invention was tested in the following screen:
Assay buffer: 20 mM sodium/potassium phosphate buffer pH 6.5 containing 10 mM taurine and 100 mM NaCl.
Developing reagent: 2 mM 3,3′,5,5′-tetramethylbenzidine (TMB), 200 μM KI, 200 mM acetate buffer pH 5.4 with 20% DMF.
To 10 μl of diluted compounds in assay buffer, 40 μl of human MPO (final concentration 2.5 nM) was added for 10 minutes at room temperature. Then 50 μl of H2O2 (final concentration 100 μM), or assay buffer alone as a control, were added for 10 minutes at room temperature. The reaction was stopped by adding 10 μl 0.2 mg/ml of catalase (final concentration 18 μg/ml) for 5 minutes before 100 μl of TMB developing reagent was added (2 mM TMB in 200 mM acetate buffer pH 5.4 containing 20% dimethylformamide (DMF) and 200 μM KI). Plates were mixed and the amount of oxidised 3,3′,5,5′-tetramethylbenzidine formed was then measured after about 5 minutes using absorbance spectroscopy at about […]. IC50 values were then determined using standard procedures.

IC50: < 60 µM
Structure (SMILES): CC(C)Cn1c(=S)[nH]c(=O)c2[nH]c(C(F)(F)F)nc21 [Example 1, 3-Isobutyl-2-thioxo-8-trifluoromethyl-1,2,3,7-tetrahydro-purin-6-one]
